Like-named read-outs stand apart in the source and are kept apart here.

For assay [1], the system named is Green Peach Aphid (Myzus Persicae). The experiment in a line: Insecticidal test for green peach aphid in foliar spray assay (col. MYZUPE). The note with it: for pest or weed control at 200 ppm: Myzus persicae, 72 h, read-out: MYZUPE 200 ppm (Corrected % Control, rating). The class given is in vivo. The procedure: (§1) The compounds were tested against cotton aphid, green peach aphid, and sweet potato whitefly using procedures described in the following examples and reported in Table 2.
(§2) In each case of Table 2, the rating scale is as follows at 200 ppm.
Insecticidal Test for Green Peach Aphid (Myzus Persicae) in Foliar Spray Assay
Cabbage seedlings grown in 3-inch pots, with 2-3 small (3-5 cm) true leaves, were used as test substrate. The seedlings were infested with 20-50 green peach aphids (wingless adult and nymph) one day prior to chemical application. Four pots with individual seedlings were used for each treatment. Compounds (2 mg) were dissolved in 2 mL of acetone/methanol (1:1) solvent, forming stock solutions of 1000 ppm. The stock solutions were diluted 5× with 0.025% Tween 20 in H2O to obtain a test solution at 200 ppm. A hand-held Devilbiss sprayer was used for spraying a solution to both sides of cabbage leaves until runoff. Reference plants (solvent check) were sprayed with the diluent only. Treated plants were held in a holding room for three days at approximately 25° C. and 40% relative humidity (RH) prior to grading. Evaluation was conducted by counting the number of live aphids per plant under a microscope. Corrected % Control=100*(X−Y)/X • where X=No. of live aphids on solvent check plants • Y=No. of live aphids on treated plants

Assay [2] concerns Sweetpotato Whitefly-Crawler (Bemisia Tabaci). The experiment in a line: Insecticidal test for sweetpotato whitefly-crawler in foliar spray assay (col. BEMITA). Format: in vivo. Conditions: for pest or weed control at 200 ppm: Bemisia tabaci, read-out: BEMITA 200 ppm (Corrected % Control, rating). The procedure: as §1, §2
Insecticidal Test for Sweetpotato Whitefly-Crawler (Bemisia Tabaci) in Foliar Spray Assay
Cotton plants grown in 3-inch pots, with 1 small (3-5 cm) true leaf, were used as test substrate. The plants were placed in a room with whitefly adults. Adults were allowed to deposit eggs for 2-3 days. After a 2-3 day egg-laying period, plants were taken from the adult whitefly room. Adults were blown off leaves using a hand-held Devilbiss sprayer (23 psi). Plants with egg infestation (100-300 eggs per plant) were placed in a holding room for 5-6 days at 82° F. and 50% RH for egg hatch and crawler stage to develop. Four cotton plants were used for each treatment. Compounds (2 mg) were dissolved in 1 mL of acetone solvent, forming stock solutions of 2000 ppm. The stock solutions were diluted 10× with 0.025% Tween 20 in H2O to obtain a test solution at 200 ppm. A hand-held Devilbiss sprayer was used for spraying a solution to both sides of cotton leaf until runoff. Reference plants (solvent check) were sprayed with the diluent only. Treated plants were held in a holding room for 8-9 days at approximately 82° F. and 50% RH prior to grading. Evaluation was conducted by counting the number of live nymphs per plant under a microscope. Insecticidal activity was measured by using Abbott's correction formula and presented in Table 2 (see col. “BEMITA”): Corrected % Control=100*(X−Y)/X • where X=No. of live nymphs on solvent check plants • Y=No. of live nymphs on treated plants Pesticidally Acceptable Acid Addition Salts, Salt Derivatives, Solvates, Ester Derivatives, Polymorphs, Isotopes and Radionuclides

Turning to `CSCCC(=O)N(C)c1sc(-c2cccnc2)nc1C(F)(F)F` [Compound 43], the pest or weed control at 200 ppm in assay [1] (green peach aphid) and in assay [2] (sweetpotato whitefly-crawler) was 80 to 100% each time. As for `CSCC(Cc1ccccc1)C(=O)N(C)c1sc(-c2cccnc2)nc1C` (stereo not shown) [Compound 330], the pest or weed control at 200 ppm in assay [1] (green peach aphid) and in assay [2] (sweetpotato whitefly-crawler) was under 80% each time.

Take `CC(=O)N1CCCC(C(=O)N(C)c2sc(-c3cccnc3)nc2Cl)C1` (stereo not shown) [Compound 413]: the results for the pest or weed control at 200 ppm in assay [1] (green peach aphid) and in assay [2] (sweetpotato whitefly-crawler) were 80 to 100% and under 80%, respectively.

`CCCCC(=O)N(CC)c1sc(-c2cccnc2)nc1Cl` [Compound 530]: the pest or weed control at 200 ppm in assay [1] (Abbott's correction formula) and in assay [2] (Abbott's correction formula) was 80 to 100% throughout. In the case of `CCN(C(=O)c1ccoc1)c1sc(-c2cccnc2)nc1Cl` [Compound 573], the pest or weed control at 200 ppm in assay [1] (Abbott's correction formula) and in assay [2] (Abbott's correction formula) was under 80% throughout. Turning to `CCN(C(=O)CC(C)(C)SC)c1sc(-c2cccnc2)nc1Cl` [Compound 490], the results for the pest or weed control at 200 ppm in assay [1] (Abbott's correction formula) and in assay [2] (Abbott's correction formula) were 80 to 100% and under 80%, respectively.

Turning to `CN(C(=O)C1CCOC1)c1sc(-c2cccnc2)nc1Cl` (stereo not shown) [Compound 415], the “MYZUPE 200 ppm (Corrected % Control, rating)” value in assay [1] (green peach aphid) was “A (80-100)”. In assay [2] (sweetpotato whitefly-crawler), the “BEMITA 200 ppm (Corrected % Control, rating)” value is “A (80-100)”.

As to `COCC(C)(C)OC(=O)N(C)c1sc(-c2cccnc2)nc1C` [Compound 302], the pest or weed control at 200 ppm in assay [1] (green peach aphid) is under 80%; in assay [2] (sweetpotato whitefly-crawler), 80 to 100%. In the case of `CN(C(=O)C1CCSC1)c1sc(-c2cccnc2)nc1Cl` (stereo not shown) [Compound 517], the values for the pest or weed control at 200 ppm in assay [1] (Abbott's correction formula) and in assay [2] (Abbott's correction formula) were 80 to 100% and under 80%, respectively. With `CCN(C(=O)CC(C)SC)c1sc(-c2cccnc2)nc1Cl` (stereo not shown) [Compound 324], the results for the pest or weed control at 200 ppm in assay [1] (green peach aphid) and in assay [2] (sweetpotato whitefly-crawler) were 80 to 100% and under 80%, respectively.

Turning to `CCN(C(=O)c1c(F)cccc1F)c1sc(-c2cccnc2)nc1Cl` [Compound 563], the pest or weed control at 200 ppm in assay [1] (Abbott's correction formula) is 80 to 100%; in assay [2] (Abbott's correction formula), under 80%. The matching figures for `C=CC(=O)N(CC)c1sc(-c2cccnc2)nc1Cl` [Compound 535]: under 80% and 80 to 100%.

Regarding `CN(C(=O)OCc1ccc([N+](=O)[O-])o1)c1cnc(-c2cncc(F)c2)s1` [Compound 77, [2-(5-Fluoropyridin-3-yl)-thiazol-5-yl]-methyl-carbamic acid 5-nitro-furan-2-ylmethyl ester], the pest or weed control at 200 ppm in assay [1] (green peach aphid) was 80 to 100%; in assay [2] (sweetpotato whitefly-crawler) it was under 80%. Turning to `CCN(C(=O)CCS(C)(=O)=O)c1sc(-c2cccnc2)nc1Cl` [Compound 315], the pest or weed control at 200 ppm in assay [1] (green peach aphid) and in assay [2] (sweetpotato whitefly-crawler) was 80 to 100% in each case. In the case of `CN(C(=O)OC(C)(C)C)c1cnc(-c2ccc(Cl)nc2)s1` [Compound 16, [2-(6-chloropyridin-3-yl)-thiazol-5-yl]-methyl-carbamic acid tert-butyl ester], the pest or weed control at 200 ppm was under 80% in assay [1] (green peach aphid) and 80 to 100% in assay [2] (sweetpotato whitefly-crawler). For the compound `Cc1nc(-c2cccnc2)sc1N(C)C(=O)[C@@H]1CCCN1C(=O)OC(C)(C)C` [Compound 292], the pest or weed control at 200 ppm in assay [1] (green peach aphid) is under 80%; in assay [2] (sweetpotato whitefly-crawler), 80 to 100%. On to `CCOC(=O)N(C)c1cnc(-c2cncc(F)c2)s1` [Compound 76, [2-(5-Fluoropyridin-3-yl)-thiazol-5-yl]-methyl-carbamic acid ethyl ester], for which the pest or weed control at 200 ppm in assay [1] (green peach aphid) and in assay [2] (sweetpotato whitefly-crawler) was 80 to 100% throughout. On to `CN(C(=O)C1CCCC1)c1sc(-c2cccnc2)nc1Cl` [Compound 553], for which the pest or weed control at 200 ppm in assay [1] (Abbott's correction formula) was under 80%; in assay [2] (Abbott's correction formula), 80 to 100%.

For the compound `Cc1nc(-c2cncc(F)c2)sc1NC(=O)C(C)CS(C)(=O)=NC#N` (stereo not shown) [Compound 164, 3-[cyano(methyl)sulfonimidoyl]-N-[2-(5-fluoropyridin-3-yl)-4-methyl-1,3-thiazol-5-yl]-2-methylpropanamide], the pest or weed control at 200 ppm was 80 to 100% in assay [1] (green peach aphid) and under 80% in assay [2] (sweetpotato whitefly-crawler). On to `Cc1nc(-c2cccnc2)sc1N(C(=O)C(C)C)C(=O)C(C)C` [Compound 21, N-isobutyryl-N-(4-methyl-2-pyridin-3-yl-thiazol-5-yl)-isobutyramide], for which the pest or weed control at 200 ppm in assay [1] (green peach aphid) and in assay [2] (sweetpotato whitefly-crawler) was 80 to 100% in each case. As for `CCN(C(=O)C1C(C=C(Cl)Cl)C1(C)C)c1sc(-c2cccnc2)nc1Cl` (stereo not shown) [Compound 552], the values for the pest or weed control at 200 ppm in assay [1] (Abbott's correction formula) and in assay [2] (Abbott's correction formula) were 80 to 100% and under 80%, respectively.

Consider `CCN(C(C)=O)c1sc(-c2cccnc2)nc1Cl` [Compound 533], for which the pest or weed control at 200 ppm in assay [1] (Abbott's correction formula) and in assay [2] (Abbott's correction formula) was 80 to 100% in each case. Turning to `CCN(C(=O)CC(C)(C)[S+](C)[O-])c1sc(-c2cccnc2)nc1Cl` (stereo not shown) [Compound 537], the pest or weed control at 200 ppm in assay [1] (Abbott's correction formula) is 80 to 100%; in assay [2] (Abbott's correction formula), under 80%.

In the case of `CSCC(C)(C)C(=O)Nc1sc(-c2ccc(F)nc2)nc1C` [Compound 20, N-[2-(6-fluoropyridin-3-yl)-4-methyl-thiazol-5-yl]-2,2-dimethyl-3-methylsulfanyl-propionamide], the pest or weed control at 200 ppm in assay [1] (green peach aphid) and in assay [2] (sweetpotato whitefly-crawler) was 80 to 100% each time. Take `Cc1nc(-c2cccnc2)sc1NC(=O)c1cnco1` [Compound 342]: the pest or weed control at 200 ppm in assay [1] (green peach aphid) and in assay [2] (sweetpotato whitefly-crawler) was under 80% in each case. As to `CSCC(C)C(=O)N(CC1CC1(F)F)c1sc(-c2cccnc2)nc1C` (stereo not shown) [Compound 467], the values for the pest or weed control at 200 ppm in assay [1] (Abbott's correction formula) and in assay [2] (Abbott's correction formula) were 80 to 100% and under 80%, respectively. `CSCCN(C)C(=O)N(C)c1cnc(-c2cncc(F)c2)s1` [Compound 74, [2-(5-fluoropyridin-3-yl)-thiazol-5-yl]-1,3-dimethyl-3-(2-methylsulfanyl-ethyl)urea]: the pest or weed control at 200 ppm in assay [1] (green peach aphid) and in assay [2] (sweetpotato whitefly-crawler) was 80 to 100% throughout. `Cc1cc(C(=O)Nc2sc(-c3cccnc3)nc2C)ccn1` [Compound 406]: the pest or weed control at 200 ppm in assay [1] (green peach aphid) was 80 to 100%; in assay [2] (sweetpotato whitefly-crawler) it was under 80%. For `CCN(C(=O)CC(C)SC)c1sc(-c2cncc(F)c2)nc1C` (stereo not shown) [Compound 300] the same measures were 80 to 100% and under 80%.

Take `CSCC(C)C(=O)N(C)c1sc(-c2cnc(Cl)c(F)c2)nc1Cl` (stereo not shown) [Compound 473]: the pest or weed control at 200 ppm in assay [2] (Abbott's correction formula) was under 80%. For `Cc1nc(-c2cncnc2)sc1NC(=O)OC(C)(C)C` [Compound 8, (4-Methyl-2-pyrimidin-5-yl-thiazol-5-yl)-carbamic acid tert-butyl ester], the pest or weed control at 200 ppm in assay [1] (green peach aphid) lay in the range of 80 to 100%.

As for `Cc1nc(-c2cccnc2)sc1N(C)C(=O)[C@@H](COCc1ccccc1)NC(=O)OC(C)(C)C` [Compound 310], the pest or weed control at 200 ppm in assay [1] (green peach aphid) is under 80%. On the same count and under the same terms, as for `Cc1nc(-c2cccnc2)sc1N(C)C(=O)C(NC(=O)OC(C)(C)C)C(C)C` (stereo not shown) [Compound 311], the figure is 80 to 100%. For `Cc1nc(-c2cccnc2)sc1N(C)C(=O)C1CCN1C(=O)OC(C)(C)C` (stereo not shown) [Compound 338], the “BEMITA 200 ppm (Corrected % Control, rating)” value in assay [2] (sweetpotato whitefly-crawler) is on record as “A (80-100)”. On to `Cc1nc(-c2cncnc2)sc1N(C)C(=O)OC(C)(C)C` [Compound 11, Methyl-(4-methyl-2-pyrimidin-5-yl-thiazol-5-yl)-carbamic acid tert-butyl ester], for which the pest or weed control at 200 ppm in assay [1] (green peach aphid) is under 80%.
